Read-outs that look alike come from different tables or passages of the source.
Assays:
[1] = Cytostatic assay (MTS/PMS) in Huh 5-2 cells; format: cell-based; conditions: human, three days
Description: (§1) Cells were seeded at a density of 5×10^3 or 7.2×10^3 cells per well in a 96-well plate in complete DMEM in serial dilutions of the test compounds for Huh 5-2 and Huh 7.5.1 cells, respectively. After three days of incubation, cell viability was determined by MTS/PMS method (Promega).

[2] = Cytostatic assay (MTS/PMS) in Huh 7.5.1 cells; format: cell-based; conditions: human
Description: as §1

[3] = tested on: HCV replicons I389luc-ubi-neo/NS3-3′/5.1 (Huh 5-2), genotype 1b subgenomic replicon; test: Antiviral assay in HCV replicon cells (Huh 5-2, firefly luciferase); format: cell-based, hepatitis C virus (HCV); conditions: for EC50: Hepatitis C virus, read-out: EC50 (50% effective concentration), HCV replicon replication, Huh 5-2 subgenomic replicon (genotype 1b), firefly luciferase, mean ± SD, four independent experiments; for fold-change of EC50 with Hemin (5 µM) (value between brackets): Huh 5-2 replicon, potentiation by Hemin 5 µM
Description: Cells carrying HCV replicons I389luc-ubi-neo/NS3-3′/5.1 (Huh 5-2) were kindly provided by Prof. R. Bartenschlager (University of Heidelberg, Germany). Cells were cultured in Dulbecco’s modified Eagle’s Medium (DMEM, Gibco, Merelbeke, Belgium) supplemented with 10% heat-inactivated fetal bovine serum (Integro, Zaandam, The Netherlands), 1× non-essential amino acids, 100 IU/mL penicillin (Gibco), 100 µg/mL streptomycin (Gibco), and 250 µg/mL G418. Cell cultures were maintained at 37°C with 5% CO2.
(§2) The antiviral assay was performed as described, [22]. Briefly, cells were seeded at a density of 5×10^3 cells per well in 96-well cell culture plates in DMEM containing 250 µg/mL G418 at 37°C (5% CO2). After 24 hours of incubation, medium was replaced with fresh DMEM (without G418) and serial dilutions of the test compounds. Replicon RNA levels were determined by a quantitative reverse transcription polymerase chain reaction (qRT-PCR) or quantified by measuring the firefly luciferase activity in 96-well cell culture plates (Safire, Tecan, Austria).

[4] = tested on: infectious HCV JFH-1/CS-N6 in Huh 7.5.1 cells; test: microbe, parasite or virus in culture; format: cell-based, hepatitis C virus (HCV); conditions: for SI: HCVcc system, CC50/EC50; for EC50: 3 days, qRT-PCR, mean ± SD, four independent experiments
Description: The highly infectious HCV JFH-1/CS-N6 described by Delgrange et al was used for the antiviral assays. A total of 7.2×10^3 Huh 7.5.1 cells per well of a 96-well cell culture plate were incubated with the virus at specific infectivity of about 400 (400 HCV RNA copies per foci-forming unit) and at the same time with serial dilutions of compounds. Following 3 days of incubation, medium was removed and cells were washed once and lysed to extract the intracellular RNA with the RNeasy kit (Qiagen). HCV RNA was quantified by means of qRT-PCR [25].
A qRT-PCR mixture contained: cellular RNA extract, HCV JFH-1 forward primer SF-JFH86 [5′-[…]-3′], reverse primer SR-JFH194 [5′-[…]-3′], and probe [5′-FAM-[…]-TAMRA-3′], was performed at 50°C for 30 min, subsequent 15 min at 95°C and PCR amplification of 40 cycles of denaturation at 94°C for 20 s and annealing and extension at 60°C for 1 min in an ABI 7500 Taqman (Live Technologies).

Huh 7.5.1 cells = test: Cytostatic assay (MTS/PMS) in Huh 7.5.1 cells; format: cell-based
Description: as §1

[5] = tested on: HCV replicon in Huh 5-2 cells; test: Drug combination studies (checker-board, Prichard and Shipman) in the HCV replicon system; format: cell-based, hepatitis C virus (HCV); conditions: Figure S2
Description: as §2
The effects of drug combinations were evaluated in a checker-board format using the method of Prichard and Shipman. The theoretical additive effect was calculated from the dose–response curves of individual compounds by the equation Z = X+Y(1−X), where X represents the inhibition produced by first compound alone and Y the inhibition by the second compound alone. Z represents the effect produced by the combination of the first with the second compound. The theoretical additive surface is subtracted from the actual experimental surface, resulting in a horizontal surface that equals the zero plane when the combination is additive. A surface that lies above the zero plane indicates a synergistic effect of the combination, and a surface below the zero plane indicates an antagonism. […]

[6] = Huh 7.5.1 hepatoma cells, three days, MTS/PMS
[7] = Hepatitis C virus, Huh-7.5.1, 72 h, read-out: EC50 (50% effective concentration), replication of HCVcc, infectious HCV JFH-1 in Huh 7.5.1
[8] = read-out: EC50 (50% effective concentration), replication of HCVcc, infectious HCV JFH-1 in Huh 7.5.1

| Compound | CC50 at 3 days [1] [µM] | CC50 at 3 days [2, 6] [µM] | EC50 [3] [µM] | fold-change of EC50 with Hemin (5 µM) (value between brackets) [3] | SI [4] | EC50 [4, 7] [µM] | other results |
| --- | --- | --- | --- | --- | --- | --- | --- |
| C[C@@H]1CCC2[C@@H](C)[C@H](OCc3ccc(CO)cc3)OC3O[C@@]4(C)CCC1[C@]32OO4 (some centres unmarked) [AJ-001] | > 133 | > 133 | 8.8 ± 2.7 | 2 fold | > 5 | 26 ± 5 |  |
| C[C@@H]1CCC2[C@@H](C)[C@H](OCc3ccc(C=O)cc3)OC3O[C@@]4(C)CCC1[C@]32OO4 (some centres unmarked) [AJ-002] | > 133 | > 133 | 30 ± 8 | 15 fold | > 8 | 15 ± 2 |  |
| CC1CCC2C(C)C(OCc3ccc(COC4OC5OC6(C)CCC7C(C)CCC(C4C)C57OO6)cc3)OC3OC4(C)CCC1C32OO4 (centres unmarked) [AJ-004] | > 133 | > 133 | 3.2 ± 2.4 |  | > 8 | 16 ± 4 | fold more efficient in inhibiting HCV replicon replication compared to the monomer AJ-001 ([3]; subgenomic replicon system): ~3 fold; fold more potent than the monomer AJ-002 ([3]; subgenomic replicon system): ~10 fold |
| C[C@@H]1CC[C@H]2[C@@H](C)C(=O)O[C@@H]3O[C@@]4(C)CC[C@@H]1[C@]32OO4 [ART, Artemisinin, reference compound] | > 400 | > 400 | 75 ± 7 | 8 fold | > 2 | 167 ± 38 | host cell proliferation and cell viability at the highest concentration tested (Huh 7.5.1 cells; 400 µM, HCVcc system cells): not affected; potentiation of antiviral activity by Hemin in the HCVcc system ([4]; Hemin at 5 µM): 2 fold; effect of the combination with TEMPO [5]: marginaly antagonistic effect |
| CO[C@H]1O[C@@H]2O[C@@]3(C)CC[C@H]4[C@H](C)CC[C@@H]([C@H]1C)[C@@]24OO3 [Artemether] |  | < 6 |  |  |  |  |  |
| C[C@H]1[C@H](OC(=O)CCC(=O)O)O[C@@H]2O[C@@]3(C)CC[C@H]4[C@H](C)CC[C@@H]1[C@@]24OO3 [Artesunate] |  | < 6 |  |  |  |  |  |
| C[C@H]1[C@@H](O)O[C@@H]2O[C@@]3(C)CC[C@H]4[C@H](C)CC[C@@H]1[C@@]24OO3 [Dihydroartemisinin] |  | < 6 |  |  |  |  |  |
| CC(=O)N[C@@H](CS)C(=O)O [L-NAC, L-N-acetylcysteine, reference compound] |  |  |  |  |  |  | HCV RNA replication with L-NAC alone ([4]; L-NAC alone at the concentration tested, printed as HCVcc replication): 98 % of UTC |
| CC1(C)CCCC(C)(C)N1[O] [TEMPO, 2,2,6,6-tetramethyl-1-piperidinyloxy, reference compound] |  |  |  |  |  |  | effect of TEMPO alone on the replication of HCV ([3]; HCV replicon system, concentrations up to 200 µM): no effect |
| CC(=O)OC1OC2OC3(C)CCC4C(C)CCC(C1C)C24OO3 (centres unmarked) [TVN2] | 36 ± 7 |  | 25 ± 13 | +4 fold |  | > 70 |  |
| C=COC1OC2OC3(C)CCC4C(C)CCC(C1C)C24OO3 (centres unmarked) [TVN4] | 123 ± 14 | > 133 | 36 ± 16 | +2 fold | > 2 | 59 ± 6 | EC50 [4, 8]: 52 ± 6 µM; effect of the combination with TEMPO [5]: marginaly antagonistic effect |
| CC1CCC2C(C)C(OC(=O)c3ccccc3)OC3OC4(C)CCC1C32OO4 (centres unmarked) [TVN6] | 40 ± 20 |  | 3.6 ± 2.3 |  |  | > 70 |  |
| CCC[C@H](NC(=O)[C@@H]1[C@H]2CCC[C@H]2CN1C(=O)[C@@H](NC(=O)[C@@H](NC(=O)c1cnccn1)C1CCCCC1)C(C)(C)C)C(=O)C(=O)NC1CC1 [VX-950, reference compound] |  |  |  |  | > 50 | 0.2 ± 0.1 | CC50 at 3 days [2]: > 10 µM |
| Hemin [reference compound] |  |  |  |  |  |  | concentration not toxic to Huh 7.5.1 (Huh 7.5.1 cells; Hemin alone): > 50 µM; EC50 [4, 8]: 8 ± 0.6 µM |

— PMC3859510 (PLoS ONE, 2013)
